Converted amounts (≈) assume the structure as drawn. “Also recorded” adds a separate entry of the source. Structures can show the parent of a compound that is named as a salt.
Assays:
[1] = Mechanical stability (grinding, XRPD); type: physicochemical; conditions: ground in an agate mortar for about 2 minutes
Procedure: About 10 mg of hydrochloride Form CS1 of the present disclosure was taken and ground in an agate mortar for about 2 minutes.

[2] = Storage stability of crystalline forms (XRPD, HPLC); type: physicochemical; conditions: for purities after storage: all storage conditions tested for the form; for Purity after storage: initial purity 99.24%
Procedure: The hydrochloride Form CS1 prepared by the present disclosure was stored under 25° C./60% RH and 40° C./75% RH for 1 month. The crystalline forms were checked by XRPD before and after storing.
(§1) Three samples of hydrochloride Form CS3 prepared by the present disclosure were stored in open dishes under conditions of 25° C./60% RH, 40° C./75% RH for 1 month, and 60° C./75% relative humidity for 2 weeks. The crystalline forms and the chemical purities were checked by XRPD and HPLC before and after storing.
as §1, with “CS4” for “CS3”, “RH for two weeks,” for “RH,”, “HPLC respectively” for “HPLC”
[…] The crystalline forms and chemical purities were checked by HPLC and XRPD before and after storing.

[3] = Dynamic solubility in water (Example 11); type: physicochemical
Procedure: 12 mg of hydrochloride Form CS3 prepared in the present disclosure and the hydrochloride Form A in CN105849100A were accurately weighed and placed in vials, followed by adding 1.2 mL of water. The samples were rotated at 30 rpm on a rotator and sampled at 1 hour, 4 hours, and 24 hours. After centrifugation with 0.45 urn polytetrafluoroethylene (PTFE) filters, the filtrates were collected for HPLC analysis.

[4] = Dynamic solubility, saturated solution in pure water (Example 17); type: physicochemical; conditions: for Solubility: pure water
Procedure: Hydrochloride Form CS4 of the present disclosure and hydrochloride Form A in CN105849100A were prepared into saturated solution in pure water. The content of the sample in the saturated solution was determined by high performance liquid chromatography (HPLC) after 1, 4 and 24 hours. The solubility data of hydrochloride Form CS4 of the present disclosure and hydrochloride Form A in CN105849100A are shown in Table 12.

[5] = test system: influenza virus infection; conditions: Completed Phase IIa studies; cited from earlier work
[6] = Phase I studies; cited from earlier work
[7] = Dynamic solubility in FaSSIF and FeSSIF (Example 22); type: physicochemical
Procedure: The crystallite form CS3 of compound I of the present disclosure and free form Form A in CN105849100A are prepared into saturated solutions in pH-5.0 FeSSIF (Fed state simulated intestinal fluids) and pH=6.5 FaSSIF (Fasted state simulated intestinal fluids). The content of the sample in the saturated solution was determined by high performance liquid chromatography (HPLC) after equlibrated for 1, 4 and 24 hours.

[8] = 25° C./60% RH, Five months, open dish
[9] = 40° C./75% RH, Five months, open dish

**Q.** Which results are given for `O=C(O)[C@H]1C2CCC(CC2)[C@@H]1Nc1nc(-c2c[nH]c3ncc(F)cc23)ncc1F` [Hydrochloride Form CS1]?
**A.** crystalline form change after grinding [1]: no form change is observed; also recorded: No crystalline form change; time for which the form is stable ([2]; 25° C./60% RH): at least 1 months; Change of crystalline form ([2]; 25° C./60% RH, One month): Unchanged; time for which the form is stable ([2]; 25° C./60% RH, listed as hydrochloride Form CS1): at least 1 months; time for which the form is stable ([2]; 40° C./75% RH): at least 1 month; Change of crystalline form ([2]; 40° C./75% RH, One month): Unchanged; time for which the form is stable ([2]; 40° C./75% RH, listed as hydrochloride Form CS1): at least 1 month; purities after storage [2]: above 98%

**Q.** For `O=C(O)[C@H]1C2CCC(CC2)[C@@H]1Nc1nc(-c2c[nH]c3ncc(F)cc23)ncc1F` [Hydrochloride Form A in CN105849100A, reference compound], which Solubility ([3]; 1 hour) is on record?
**A.** 0.3 µg/mL

**Q.** And the Solubility ([3]; 4 hours)?
**A.** 0.9 µg/mL

**Q.** And the Solubility ([3]; 24 hours)?
**A.** 2.5 µg/mL

**Q.** What about the Solubility ([4]; 1 hour) of the same compound?
**A.** 0.3 µg/mL

**Q.** And the Solubility ([4]; 4 hours)?
**A.** 0.9 µg/mL

**Q.** And the Solubility ([4]; 24 hours)?
**A.** 2.5 µg/mL

**Q.** With `O=C(O)[C@H]1C2CCC(CC2)[C@@H]1Nc1nc(-c2c[nH]c3ncc(F)cc23)ncc1F` [VX-787, (2S,3S)-3-((5-Huoro-2-(5-fluoro-1.171-pyrrolo[2,3-b]pyridin-3-yl)pyrimidin-4-yl)amino) bicyclo[2.2.2]octane-2-carboxylic acid] as the compound, how does the “virological and clinical evaluation of influenza virus infection” value [5] read?
**A.** statistical significance

**Q.** And the tolerance [6]?
**A.** good tolerance

**Q.** With `O=C(O)[C@H]1C2CCC(CC2)[C@@H]1Nc1nc(-c2c[nH]c3ncc(F)cc23)ncc1F` [Form CS3 of Compound I] as the compound, how does the “Solubility FaSSIF” value ([7]; FaSSIF pH=6.5, 1 hour) read?
**A.** 110 µg/mL (≈ 275 µM)

**Q.** And the “Solubility FaSSIF” value ([7]; FaSSIF pH=6.5, 4 hours)?
**A.** 210 µg/mL (≈ 526 µM)

**Q.** And the “Solubility FaSSIF” value ([7]; FaSSIF pH=6.5, 24 hours)?
**A.** 200 µg/mL (≈ 501 µM)

**Q.** And the “solubility, times higher than Form A in CN105849100A” value ([7]; FaSSIF, 1, 4 and 24 hours)?
**A.** 6-16 times

**Q.** What about the “Solubility FeSSIF” value ([7]; FeSSIF pH 5.0, 1 hour) of the same compound?
**A.** 210 µg/mL (≈ 526 µM)

**Q.** And the “Solubility FeSSIF” value ([7]; FeSSIF pH 5.0, 4 hours)?
**A.** 290 µg/mL (≈ 726 µM)

**Q.** What about the “Solubility FeSSIF” value ([7]; FeSSIF pH 5.0, 24 hours) of the same compound?
**A.** 250 µg/mL (≈ 626 µM)

**Q.** What about the “solubility, times higher than Form A in CN105849100A” value ([7]; FeSSIF, 1, 4 and 24 hours) of the same compound?
**A.** 4-11 times

**Q.** What about the “Change of crystalline form” value [2, 8] of the same compound?
**A.** Five months Unchanged

**Q.** And the Purity after storage [2, 8]?
**A.** 99.28%

**Q.** What about the “time for which the form is stable” value ([2]; 25° C./60% RH, listed as Crystalline form CS3 of compound I) of the same compound?
**A.** at least 5 months

**Q.** And the “time for which the form is stable” value ([2]; 25° C./60% RH, listed as crystalline form CS3 of compound I)?
**A.** at least 5 months

**Q.** And the “Change of crystalline form” value [2, 9]?
**A.** Five months Unchanged

**Q.** What about the Purity after storage [2, 9] of the same compound?
**A.** 99.26%

**Q.** And the “time for which the form is stable” value ([2]; 40° C./75% RH, listed as Crystalline form CS3 of compound I)?
**A.** at least 5 month

**Q.** And the “time for which the form is stable” value ([2]; 40° C./75% RH, listed as crystalline form CS3 of compound I)?
**A.** at least 5 month

**Q.** With `O=C(O)[C@H]1C2CCC(CC2)[C@@H]1Nc1nc(-c2c[nH]c3ncc(F)cc23)ncc1F` [Hydrochloride Form CS4] as the compound, how does the “Change of crystalline form” value ([2]; 25° C./60% RH, Two weeks, open dish) read?
**A.** Unchanged

**Q.** What about the “time for which the form is stable” value ([2]; 25° C./60% RH, listed as hydrochloride Form CS4) of the same compound?
**A.** at least 2 weeks

**Q.** What about the “time for which the form is stable” value ([2]; 40° C./75% RH, listed as hydrochloride Form CS4) of the same compound?
**A.** at least 1 month

**Q.** And the purities after storage [2]?
**A.** above 98%

**Q.** And the Solubility ([4]; 1 hour)?
**A.** 85 µg/mL

**Q.** What about the Solubility ([4]; 4 hours) of the same compound?
**A.** 75 µg/mL

**Q.** And the Solubility ([4]; 24 hours)?
**A.** 94 µg/mL

**Q.** And the “solubility, times higher than hydrochloride Form A of CN105849100A” value ([4]; water, after 1, 4 and 24 hours)?
**A.** 38-283 times

**Q.** Which “Solubility FaSSIF” value ([7]; FaSSIF pH=6.5, 1 hour) does the source give for `O=C(O)[C@H]1C2CCC(CC2)[C@@H]1Nc1nc(-c2c[nH]c3ncc(F)cc23)ncc1F` [Free Form Form A in CN105849100A, reference compound] here?
**A.** 7 µg/mL (≈ 17.5 µM)

**Q.** What about the “Solubility FaSSIF” value ([7]; FaSSIF pH=6.5, 4 hours) of the same compound?
**A.** 13 µg/mL (≈ 32.5 µM)

**Q.** What about the “Solubility FaSSIF” value ([7]; FaSSIF pH=6.5, 24 hours) of the same compound?
**A.** 31 µg/mL (≈ 77.6 µM)

**Q.** What about the “Solubility FeSSIF” value ([7]; FeSSIF pH 5.0, 1 hour) of the same compound?
**A.** 18 µg/mL (≈ 45.1 µM)

**Q.** And the “Solubility FeSSIF” value ([7]; FeSSIF pH 5.0, 4 hours)?
**A.** 30 µg/mL (≈ 75.1 µM)

**Q.** What about the “Solubility FeSSIF” value ([7]; FeSSIF pH 5.0, 24 hours) of the same compound?
**A.** 57 µg/mL (≈ 143 µM)

**Q.** Which Solubility ([3]; 1 hour) does the source give for `O=C(O)[C@H]1C2CCC(CC2)[C@@H]1Nc1nc(-c2c[nH]c3ncc(F)cc23)ncc1F` [Hydrochloride Form CS3] here?
**A.** 2.5 µg/mL

**Q.** What about the Solubility ([3]; 4 hours) of the same compound?
**A.** 46.0 µg/mL

**Q.** What about the Solubility ([3]; 24 hours) of the same compound?
**A.** 15.0 µg/mL

**Q.** What about the “solubility, times higher than hydrochloride Form A in CN105849100A” value ([3]; after 1, 4 and 24 hours) of the same compound?
**A.** 6-51 times

**Q.** And the “Change of crystalline form” value ([2]; 25° C./60% RH, Seven months, open dish)?
**A.** Unchanged

**Q.** And the “time for which the form is stable” value ([2]; 25° C./60% RH, listed as hydrochloride Form CS3)?
**A.** at least 7 months

**Q.** What about the “time for which the form is stable” value ([2]; 40° C./75% RH, listed as hydrochloride Form CS3) of the same compound?
**A.** at least 1 month

**Q.** What about the “time for which the form is stable” value ([2]; 60° C./75% RH) of the same compound?
**A.** at least 2 weeks

**Q.** And the “Change of crystalline form” value ([2]; 60° C./75% RH, Two weeks, open dish)?
**A.** Unchanged

**Q.** And the purities after storage [2]?
**A.** above 98%

— patent US10815232B2, “Crystalline forms of viral-protein inhibitor drug VX-787, processes for preparation thereof and use thereof” (Crystal Pharmaceutical (Suzhou) Co., Ltd., priority 2017, dated 2020)
